Results published in patent US20230203058A1, “MACROCYCLIC DIAMINE DERIVATIVES AS ENT INHIBITORS FOR THE TREATMENT OF CANCERS, AND COMBINATION THEREOF WITH ADENOSINE RECEPTOR ANTAGONISTS” (ITEOS BELGIUM SA, priority 2020, published 2023).
Read-outs that look alike come from different tables or passages of the source.

Tests used:
[1] = tested on: human T cells; experiment: T cell stimulation assay (Example III, FIG. 1); type: cell-based; details: ATP 100 µM
Experimental: FIG. 1A depicts a graph of log concentration (M) versus percent proliferation. Purified human T cells were activated with anti-CD3/CD28 dynabeads in the presence of ATP (100 µM) as a source of adenosine for 96 h and then proliferation was assessed by CFSE dilution.
FIG. 1B depicts a graph of log concentration of ENT1 inhibitor (M) versus percent proliferation. Experiment performed as in FIG. A with the addition of HSA and AAG to the culture medium (final concentration 2 and 0.1%, respectively).
Peripheral blood mononuclear cells (PBMCs) were first isolated via centrifugation of fresh whole blood over Lymphoprep using SepMate-50 tubes (both from […] Technologies) according to the manufacturer’s instructions. Human T cells were then isolated from the PBMCs using the EasySep Human T cell Isolation Kit ([…] Technologies) according to the manufacturer’s instructions and the cells were cryopreserved in FBS with 10% DMSO until required.
Cryopreserved human T cells were thawed on the day of the experiment and resuspended in PBS with 10% FBS at approximately 1 × 10^7 cells/ml. This cell suspension was diluted 1:1 with 2 µM CFSE solution (ThermoFisher Scientific) in PBS and incubated for 5 minutes at room temperature. The labelling reaction was quenched by further addition of PBS with 10% FBS, and then the cells were washed into X-VIVO15 medium (Lonza) for use in the T cell assay.
CFSE-labelled T cells were plated at 2 × 10^4 cells per well in 384 well plates in the presence of ATP (100 µM, Sigma-Aldrich) as a source of adenosine. Activation was driven by the addition of Dynabeads Human T-Activator CD3/CD28 (ThermoFisher Scientific) at a ratio of 0,5 beads per T cell. ENT1 inhibitor molecules including the reference molecule dilazep (Tocris Bioscience) were added, the volume of the wells was adjusted to 50 µl with X-VIVO15 medium and the plates were cultured in a humidified incubator for 96 h at 37° C. with 5% CO2. In some experiments the culture was supplemented with human serum albumin (HSA) and alpha-1-acid glycoprotein (AAG, both Sigma-Aldrich) at final concentrations of 2 and 0,1%, respectively.
Analysis of proliferation via CSFE dilution was performed by flow cytometry using a BD LSR Fortessa with data analysis on FlowJo (BD Biosciences).

[2] = tested on: MCA205 cells; experiment: Syngeneic fibrosarcoma model (MCA205, FIG. 4); type: in vivo, C57BL/6 mice
Experimental: FIG. 4 consists of three graphs: A, B, and C depicting the evalution of to assess the anti-tumor efficacy of compound Compound 8 in syngeneic fibrosarcoma model.
To assess the anti-tumor efficacy of compound Compound 8 in syngeneic fibrosarcoma model, C57BL/6 (n=8) were subcutaneously inoculated with […] MCA205 cells in the right flank. At day 8 after inoculation the mice were randomized according tumor size and received oral treatment of Compound 8 at 10 mg/kg or its vehicle. The mice were monitored 3 times a week for tumor measurements, and the data plotted below. […] (FIG. 4B and FIG. 4C) At day 21 after inoculation, 57% of the mice treated with 10 mg/kg of Compound 8 were responsive to Compound 8 treatment and at day 31 15% of the mice presented significant tumor growth delay with tumors below 1000 mm^3. The statistical analysis was performed in JMP software using linear fixed model.

[3] = target: T1, human ENT1 (Homo sapiens, UniProt Q99808); experiment: ENT1 binding assay (competition with Sahenta-DY647 on JAR cells); parameters: JAR cells expressing ENT1 were bought from ATCC® (HTB-144TM); host or cells: JAR cells (human choriocarcinoma line; whole cells); details: competition with Sahenta-DY647 100 nM, 4° C.
T1 sequence (Q99808 1-456): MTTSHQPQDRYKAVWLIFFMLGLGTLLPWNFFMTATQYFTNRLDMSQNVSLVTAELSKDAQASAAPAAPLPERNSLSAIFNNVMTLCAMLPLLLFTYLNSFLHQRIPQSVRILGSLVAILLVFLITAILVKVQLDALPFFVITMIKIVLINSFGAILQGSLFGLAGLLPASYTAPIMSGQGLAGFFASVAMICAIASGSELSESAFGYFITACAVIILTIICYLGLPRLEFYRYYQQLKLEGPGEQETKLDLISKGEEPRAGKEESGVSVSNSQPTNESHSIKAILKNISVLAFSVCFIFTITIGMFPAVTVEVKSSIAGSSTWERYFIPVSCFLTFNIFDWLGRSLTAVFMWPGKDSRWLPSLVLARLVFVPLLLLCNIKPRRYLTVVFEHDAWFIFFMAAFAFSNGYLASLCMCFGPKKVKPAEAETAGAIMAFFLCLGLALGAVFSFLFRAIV
In short: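 Competition binding on intact JAR cells (50000 per well) in HBSS with 10 mM Hepes and 0.1% BSA. Cells pre-incubated with compound 30 min at 4 °C, then Sahenta-DY647 added at its IC90 (100 nM) for another 30 min at 4 °C; after washing, fluorescence read at Ex 630/Em 670 nm.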

[4] = target: T1, human ENT1; experiment: Uridine transport inhibition assay (3H-uridine uptake in MDCKII-ENT1-LV cells); type: cell-based; details: uridine 1 µM, 1 min at 25° C.
From the text: The aim of this study was to determine the potency of equilibrative nucleoside transporter 1 (ENT1) inhibitors by measuring ENT1-mediated transport is the cellular uptake assay. The human ENT1 transporter can be stably expressed in Madin-Darby Canine Kidney II (MDCKII) cells via transduction. Uridine is efficiently transported by ENT1 and is used as probe in the assay as 3 H-uridine. The interaction is detected as the modulation of the initial rate of 3 H-uridine transport by human ENT1 into MDCKII-ENT1-LV cells stably expressing ENT1 uptake transporter.

[5] = tested on: stimulated primary human T cells; experiment: T cell proliferation assay (rescue of proliferation in presence of ATP, CFSE dilution); type: cell-based; details: 100 uM ATP
Experimental: The aim of this study was to determine the potency of equilibrative nucleoside transporter 1 (ENT1) inhibitors to rescue proliferation by stimulated primary human T cells incubated in the presence of 100 uM Adenosine triphosphate (ATP), in baseline conditions (condition A) or in the presence of various proteins known to bind small molecules (condition B). Condition A: X-VIVO15 Condition B: X-VIVO15, 2% Human Serum Albumine (HSA) and 0,1% α-1-Acid Glycoprotein (AAG)
Cryopreserved purified human CD3+ T cells were thawed and washed twice with RPMI1640 medium, UltraGlutamine containing 10% hiFBS.
Cells were suspended in PBS containing 10% hiFBS. Cells were stained with CFSE by adding 2 µM solution in PBS, to get a final 1 µM CFSE solution. Cells were incubated while rotating for 5 minutes. Reaction was stopped by adding PBS with 10% FBS and cells were centrifuged for 5 minutes at 1500 rpm.
Cells were resuspended at 1.6 ×10^6 cells/mL, either in X-VIVO15 medium or in 4% Human Serum Albumin and 0,2% α-1-Acid Glycoprotein. 50 µL of cell suspension (8×10^4 T cells) was added to wells of sterile round-bottom 96-well plates. Cells were activated by adding 50 µL of anti-CD3 anti-CD28 coated microbeads, suspended either in XVIVO-15 medium or in 4% HSA and 0,2% α-1-Acid Glycoprotein, at a ratio of one microbead per two cells. Serial dilutions of the ENT1 inhibitors were prepared in X-VIVO15 from 10 mM stock solutions in DMSO, and 50 µL was added to the wells. ATP powder was diluted in X-VIVO15, and 50 µL of this compound was added to the wells to reach a final assay concentration of 100 µM. Final volume of 200 µL. The experiments were also performed in 384 well plates - all volumes reduced by a factor of 4 (12,5 µL) with a final volume of 50 µL. Experiments were performed in duplicate. The cells were placed in a 37° C. humidified tissue culture incubator with 5% CO2 for 72 hours for 96 well plates, 96 hours for 384 well plates. After 72 or 96 hours, proliferation was measured determined by CFSE dilution via flow cytometry.

[6] = target: T2, hERG ion channel (Homo sapiens, UniProt Q12809); experiment: hERG ion channel inhibition (Patchliner automated patch-clamp, CHO cells); type: cell-based; details: whole-cell, room temperature, 6-point curve up to 100 µM
T2 construct: Chinese Hamster Ovary cell lines stably expressing the full-length ion channel; expressed in transfected cells
Experimental: The compounds were tested for inhibition of hERG ion channel. 6-Point concentration-response curves were generated on the Patchliner automated patch-clamp using serial dilutions from a maximum test concentration of 100 µM.
Compounds were solubilised to 33 mM in DMSO before dilution in HBPS to 100 µM. 6-Point concentration-response curves were generated using serial dilutions from the top test concentration. Electrophysiological recordings were made from a Chinese Hamster Ovary cell lines stably expressing the full-length ion channel. Single cell ionic currents were measured in whole-cell configuration at room temperature (21-23° C.) using a Patchliner (Nanion Technologies). The internal solution for hERG contained (mM): 120 KF, 20 KCl, 10 EGTA, 10 HEPES and was buffered to pH 7.3. The external solution (HEPES-buffered saline, HBPS) contained (mM): 138 NaCl, 4.5 KCl, 1.8 CaC12, 1.0 MgC12, 10 HEPES, 10 glucose, buffered to pH7.4. Cells were clamped at a holding potential of -80 mV before a depolarising step appropriate for the hERG channel. Currents were measured from the step and referenced to the holding current. Compounds were incubated for 90 seconds. Concentration-response curves were generated by cumulative addition of compound with concentrations low to high. In all cases, steady-state inhibition was achieved before the next concentration of compound was added.
IC50 values were obtained from a 4-parameter logistic fit of the concentration-response data: […]

[7] = Condition A: X-VIVO15, read-out: T Cell proliferation (Condition A) IC50
[8] = Condition B: X-VIVO15, 2% HSA and 0,1% AAG, read-out: (2) T Cell proliferation (Condition B) IC50

T2 sequence (Q12809 whole entry): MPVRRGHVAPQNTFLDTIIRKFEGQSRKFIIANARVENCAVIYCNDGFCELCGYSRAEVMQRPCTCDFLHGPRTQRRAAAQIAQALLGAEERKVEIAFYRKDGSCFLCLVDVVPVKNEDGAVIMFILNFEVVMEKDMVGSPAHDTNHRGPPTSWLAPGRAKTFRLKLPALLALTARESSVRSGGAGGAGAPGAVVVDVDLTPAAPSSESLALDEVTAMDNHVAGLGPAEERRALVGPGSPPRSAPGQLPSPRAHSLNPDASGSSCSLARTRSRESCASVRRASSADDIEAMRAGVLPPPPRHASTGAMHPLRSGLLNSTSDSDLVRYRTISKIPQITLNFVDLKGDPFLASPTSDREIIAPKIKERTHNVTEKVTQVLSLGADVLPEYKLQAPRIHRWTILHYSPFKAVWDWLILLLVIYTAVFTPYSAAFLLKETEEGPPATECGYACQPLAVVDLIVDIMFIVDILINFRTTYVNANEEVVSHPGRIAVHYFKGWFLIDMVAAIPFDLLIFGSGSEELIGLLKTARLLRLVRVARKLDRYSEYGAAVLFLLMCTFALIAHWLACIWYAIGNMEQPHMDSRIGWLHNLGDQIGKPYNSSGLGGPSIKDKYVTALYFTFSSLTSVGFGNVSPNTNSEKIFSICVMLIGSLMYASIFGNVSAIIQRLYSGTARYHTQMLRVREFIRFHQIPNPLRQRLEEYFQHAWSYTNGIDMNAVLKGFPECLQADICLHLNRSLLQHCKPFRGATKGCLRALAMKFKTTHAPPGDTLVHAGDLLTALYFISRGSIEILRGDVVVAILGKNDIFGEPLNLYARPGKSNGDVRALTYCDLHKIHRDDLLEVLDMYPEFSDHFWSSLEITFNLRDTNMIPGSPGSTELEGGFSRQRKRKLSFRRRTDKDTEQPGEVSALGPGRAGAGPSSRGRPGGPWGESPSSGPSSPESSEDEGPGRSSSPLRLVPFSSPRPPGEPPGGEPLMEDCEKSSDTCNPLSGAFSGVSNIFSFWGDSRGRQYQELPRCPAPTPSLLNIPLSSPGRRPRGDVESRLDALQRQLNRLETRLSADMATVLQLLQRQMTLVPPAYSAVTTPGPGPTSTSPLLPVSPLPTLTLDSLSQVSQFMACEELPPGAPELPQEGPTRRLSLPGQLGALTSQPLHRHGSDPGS

Row | IC50 [3] | IC50 [4] | SMILES | IC50 ([1]; anti-CD3/CD28 dynabeads, 96 h (FIG. 1A), read-out: IC50 of restoration of T cell proliferation) | IC50 ([1]; with HSA 2% and AAG 0,1% (FIG. 1B), read-out: IC50 of restoration of T cell proliferation under high protein binding conditions) | Median tumor growth kinetics versus vehicle ([2]; 10 mg/kg oral (FIG. 4A)) | Mice responsive to treatment ([2]; 10 mg/kg oral, day 21 after inoculation) | Mice with significant tumor growth delay, tumors below 1000 mm^3 ([2]; 10 mg/kg oral, day 31 after inoculation) | IC50 [5, 7] | IC50 [5, 8] | IC50 [6]
1 | 1 to 20 nM |  | COc1cc(C(=O)OC2CCCOc3cc(cc(OC)c3OC)C(=O)NCCCN3CCCN(CC2)CC3)cc(OC)c1OC (centres unmarked) [Compound 8, 74,75-dimethoxy-6-oxo-8-oxa-5-aza-1(1,4)-diazepana-7(1,3)-benzenacyclotetradecaphane-12-yl 3,4,5-trimethoxybenzoate] | 2 nM | 16 nM | slight change in tumor size | 57% | 15% |  |  | 
2 | 1 to 20 nM | 1 to 20 nM | COc1cc(C(=O)OC2CCCOc3cc(cc(OC)c3OC)C(=O)OCCCN3CCN(CC2)CC(F)(F)C3)cc(OC)c1OC (centres unmarked) [Compound 4, 16,16-difluoro-74,75-dimethoxy-6-oxo-5,8-dioxa-1(1,4)-diazepana-7(1,3)-benzenacyclotetradecaphane-12-yl 3,4,5-trimethoxybenzoate] |  |  |  |  |  | < 1 nM | 1 to 20 nM | 73000 nM
3 | 1 to 20 nM | 1 to 20 nM | COc1cc(C(=O)O[C@@H]2CCCOc3cc(cc(OC)c3OC)C(=O)N(C)CCCN3CCCN(CC2)CC3)cc(OC)c1OC [Compound 13, (12R)-74,75-dimethoxy-5-methyl-6-oxo-8-oxa-5-aza-1(1,4)-diazepana-7(1,3)-benzenacyclotetradecaphane-12-yl 3,4,5-trimethoxybenzoate] |  |  |  |  |  | 1 to 20 nM | > 500 nM | 
4 | 1 to 20 nM | 1 to 20 nM | COc1cc(C(=O)O[C@@H]2CCCOc3cc(cc(OC)c3OC)C(=O)NCCCN3CCCN(CC2)CC3)cc(OC)c1OC [Compound 10, (12R)-74,75-dimethoxy-6-oxo-8-oxa-5-aza-1(1,4)-diazepana-7(1,3)-benzenacyclotetradecaphane-12-yl 3,4,5-trimethoxybenzoate] |  |  |  |  |  | 1 to 20 nM | 20 to 500 nM | 3400 nM
